Experimental data from PubChem BioAssay (NCI).
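Assay format: 96-well plates, 48-hour exposure. GI50 is the concentration that inhibits growth by half. The concentration for full growth arrest is given as TGI.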

Columns and labels:
Experiment in all cases: NCI tumour cell line growth inhibition, 48 h
786-0 renal = test system: 786-0 renal
A498 renal = test system: A498 renal
A549 NSCLC = test system: A549 NSCLC
ACHN renal = test system: ACHN renal
BT-549 breast = test system: BT-549 breast
CAKI-1 renal = test system: CAKI-1 renal
CCRF-CEM leukemia = test system: CCRF-CEM leukemia
COLO 205 colon = test system: COLO 205 colon
DU-145 prostate = test system: DU-145 prostate
EKVX NSCLC = test system: EKVX NSCLC
HCC-2998 colon = test system: HCC-2998 colon
HCT-116 colon = test system: HCT-116 colon
HCT-15 colon = test system: HCT-15 colon
HL-60(TB) leukemia = test system: HL-60(TB) leukemia
HOP-62 NSCLC = test system: HOP-62 NSCLC
HOP-92 NSCLC = test system: HOP-92 NSCLC
HS 578T breast = test system: HS 578T breast
HT29 colon = test system: HT29 colon
IGROV1 ovarian = test system: IGROV1 ovarian
K-562 leukemia = test system: K-562 leukemia
KM12 colon = test system: KM12 colon
LOX IMVI melanoma = test system: LOX IMVI melanoma
M14 melanoma = test system: M14 melanoma
MALME-3M melanoma = test system: MALME-3M melanoma
MCF7 breast = test system: MCF7 breast
MDA-MB-231 breast = test system: MDA-MB-231 breast
MDA-MB-435 = test system: MDA-MB-435
MOLT-4 leukemia = test system: MOLT-4 leukemia
NCI-H226 lung = test system: NCI-H226 lung
NCI-H23 lung = test system: NCI-H23 lung
NCI-H460 lung = test system: NCI-H460 lung
NCI-H522 lung = test system: NCI-H522 lung
NCI/ADR-RES ovarian = test system: NCI/ADR-RES ovarian
OVCAR-3 ovarian = test system: OVCAR-3 ovarian
OVCAR-4 ovarian = test system: OVCAR-4 ovarian
OVCAR-5 ovarian = test system: OVCAR-5 ovarian
OVCAR-8 ovarian = test system: OVCAR-8 ovarian
PC-3 prostate = test system: PC-3 prostate
RPMI-8226 leukemia = test system: RPMI-8226 leukemia
RXF 393 renal = test system: RXF 393 renal
SF-268 CNS = test system: SF-268 CNS
SF-295 CNS = test system: SF-295 CNS
SF-539 CNS = test system: SF-539 CNS
SK-MEL-2 melanoma = test system: SK-MEL-2 melanoma
SK-MEL-28 melanoma = test system: SK-MEL-28 melanoma
SK-MEL-5 melanoma = test system: SK-MEL-5 melanoma
SK-OV-3 ovarian = test system: SK-OV-3 ovarian
SN12C renal = test system: SN12C renal
SNB-19 CNS = test system: SNB-19 CNS
SNB-75 CNS = test system: SNB-75 CNS
SR leukemia = test system: SR leukemia
SW-620 colon = test system: SW-620 colon
T-47D breast = test system: T-47D breast
TK-10 renal = test system: TK-10 renal
U251 CNS = test system: U251 CNS
UACC-257 melanoma = test system: UACC-257 melanoma
UACC-62 melanoma = test system: UACC-62 melanoma
UO-31 renal = test system: UO-31 renal

CCCc1cn2c(/C=N/N=C(N)N)c(-c3c(OC)ccc(OC)c3[N+](=O)[O-])nc2s1
TGI (786-0 renal): 28.1 µM
TGI (A498 renal): 44.6 µM
TGI (A549 NSCLC): 51.3 µM
TGI (ACHN renal): 35.6 µM
TGI (BT-549 breast): 35.6 µM
TGI (CAKI-1 renal): 30.6 µM
TGI (CCRF-CEM leukemia): 8.43 µM
TGI (COLO 205 colon): 6.42 µM
TGI (DU-145 prostate): 35.6 µM
TGI (EKVX NSCLC): 44.8 µM
TGI (HCC-2998 colon): 4.59 µM
TGI (HCT-116 colon): 22.2 µM
TGI (HCT-15 colon): 37 µM
TGI (HL-60(TB) leukemia): 27.6 µM
TGI (HOP-62 NSCLC): 31.1 µM
TGI (HOP-92 NSCLC): 47 µM
TGI (HS 578T breast): 41.9 µM
TGI (HT29 colon): > 38.5 µM
TGI (IGROV1 ovarian): 34.8 µM
TGI (K-562 leukemia): 11.5 µM
TGI (KM12 colon): 11.6 µM
TGI (LOX IMVI melanoma): 9.13 µM
TGI (M14 melanoma): 21.3 µM
TGI (MALME-3M melanoma): 30 µM
TGI (MCF7 breast): 20.8 µM
TGI (MDA-MB-231 breast): 16.2 µM
TGI (MDA-MB-435): 19.9 µM
TGI (MOLT-4 leukemia): 4.19 µM
TGI (NCI-H226 lung): 38.3 µM
TGI (NCI-H23 lung): 26.1 µM
TGI (NCI-H460 lung): 41.6 µM
TGI (NCI-H522 lung): 34.2 µM
TGI (NCI/ADR-RES ovarian): 64.6 µM
TGI (OVCAR-3 ovarian): 18.2 µM
TGI (OVCAR-4 ovarian): 66.2 µM
TGI (OVCAR-5 ovarian): 34.5 µM
TGI (OVCAR-8 ovarian): 47.3 µM
TGI (PC-3 prostate): 26.5 µM
TGI (RPMI-8226 leukemia): 8.7 µM
TGI (RXF 393 renal): 41.2 µM
TGI (SF-268 CNS): 47.2 µM
TGI (SF-295 CNS): 35.7 µM
TGI (SF-539 CNS): 36.9 µM
TGI (SK-MEL-2 melanoma): 46.5 µM
TGI (SK-MEL-28 melanoma): 19.4 µM
TGI (SK-MEL-5 melanoma): 32.3 µM
TGI (SK-OV-3 ovarian): 43.3 µM
TGI (SN12C renal): 31.7 µM
TGI (SNB-19 CNS): 49.9 µM
TGI (SNB-75 CNS): > 59.1 µM
TGI (SR leukemia): 4.34 µM
TGI (SW-620 colon): 32.9 µM
TGI (T-47D breast): 24.3 µM
TGI (TK-10 renal): 41 µM
TGI (U251 CNS): 18.7 µM
TGI (UACC-257 melanoma): 28.4 µM
TGI (UACC-62 melanoma): 25.4 µM
TGI (UO-31 renal): 45 µM

N[C@H]1C[C@@H]1c1ccc(-c2cccc(O)c2)cc1
GI50 (786-0 renal): 29.6 µM
TGI (786-0 renal): > 100 µM
GI50 (A498 renal): 14.8 µM
TGI (A498 renal): 69.6 µM
GI50 (A549 NSCLC): 50.6 µM
TGI (A549 NSCLC): > 100 µM
GI50 (ACHN renal): 23.2 µM
TGI (ACHN renal): 93.3 µM
GI50 (BT-549 breast): 22.4 µM
TGI (BT-549 breast): > 100 µM
GI50 (CAKI-1 renal): 22.4 µM
TGI (CAKI-1 renal): 82.9 µM
GI50 (CCRF-CEM leukemia): 29.3 µM
TGI (CCRF-CEM leukemia): > 100 µM
GI50 (COLO 205 colon): 29.2 µM
TGI (COLO 205 colon): > 100 µM
GI50 (DU-145 prostate): 42.2 µM
TGI (DU-145 prostate): > 100 µM
GI50 (EKVX NSCLC): 27.2 µM
TGI (EKVX NSCLC): > 100 µM
GI50 (HCC-2998 colon): 20 µM
TGI (HCC-2998 colon): 67.2 µM
GI50 (HCT-116 colon): 25 µM
TGI (HCT-116 colon): > 100 µM
GI50 (HCT-15 colon): 26.7 µM
TGI (HCT-15 colon): > 100 µM
GI50 (HL-60(TB) leukemia): 17.6 µM
TGI (HL-60(TB) leukemia): 44.9 µM
GI50 (HOP-62 NSCLC): 28.3 µM
TGI (HOP-62 NSCLC): > 100 µM
GI50 (HOP-92 NSCLC): 11.9 µM
TGI (HOP-92 NSCLC): 72 µM
GI50 (HS 578T breast): 22.8 µM
TGI (HS 578T breast): > 100 µM
GI50 (HT29 colon): 34.7 µM
TGI (HT29 colon): > 100 µM
GI50 (IGROV1 ovarian): 30.8 µM
TGI (IGROV1 ovarian): > 100 µM
GI50 (K-562 leukemia): 21 µM
TGI (K-562 leukemia): 76.1 µM
GI50 (KM12 colon): 29.2 µM
TGI (KM12 colon): 93.4 µM
GI50 (LOX IMVI melanoma): 14.8 µM
TGI (LOX IMVI melanoma): 29.7 µM
GI50 (M14 melanoma): 15.7 µM
TGI (M14 melanoma): 36.3 µM
GI50 (MALME-3M melanoma): 14.2 µM
TGI (MALME-3M melanoma): 44.9 µM
GI50 (MCF7 breast): 22.9 µM
TGI (MCF7 breast): > 100 µM
GI50 (MDA-MB-231 breast): 17.6 µM
TGI (MDA-MB-231 breast): 44 µM
GI50 (MDA-MB-435): 22.6 µM
TGI (MDA-MB-435): 61.6 µM
GI50 (MOLT-4 leukemia): 22.3 µM
TGI (MOLT-4 leukemia): 74.5 µM
GI50 (NCI-H226 lung): > 100 µM
TGI (NCI-H226 lung): > 100 µM
GI50 (NCI-H23 lung): 37.6 µM
TGI (NCI-H23 lung): > 100 µM
GI50 (NCI-H460 lung): 45.9 µM
TGI (NCI-H460 lung): > 100 µM
GI50 (NCI-H522 lung): 15 µM
TGI (NCI-H522 lung): 35.1 µM
GI50 (NCI/ADR-RES ovarian): 36.8 µM
TGI (NCI/ADR-RES ovarian): > 100 µM
GI50 (OVCAR-3 ovarian): 38.9 µM
TGI (OVCAR-3 ovarian): > 100 µM
GI50 (OVCAR-4 ovarian): 28.9 µM
TGI (OVCAR-4 ovarian): > 100 µM
GI50 (OVCAR-5 ovarian): 37.5 µM
TGI (OVCAR-5 ovarian): > 100 µM
GI50 (OVCAR-8 ovarian): 34 µM
TGI (OVCAR-8 ovarian): > 100 µM
GI50 (PC-3 prostate): 26.4 µM
TGI (PC-3 prostate): > 100 µM
GI50 (RPMI-8226 leukemia): 19 µM
TGI (RPMI-8226 leukemia): 63 µM
GI50 (RXF 393 renal): 17.1 µM
TGI (RXF 393 renal): > 100 µM
GI50 (SF-268 CNS): 27.5 µM
TGI (SF-268 CNS): > 100 µM
GI50 (SF-295 CNS): 28.1 µM
TGI (SF-295 CNS): > 100 µM
GI50 (SF-539 CNS): 24.2 µM
TGI (SF-539 CNS): 98.4 µM
GI50 (SK-MEL-2 melanoma): 19 µM
TGI (SK-MEL-2 melanoma): 52.6 µM
GI50 (SK-MEL-28 melanoma): 24.3 µM
TGI (SK-MEL-28 melanoma): 69.2 µM
GI50 (SK-MEL-5 melanoma): 15.5 µM
TGI (SK-MEL-5 melanoma): 30.2 µM
GI50 (SK-OV-3 ovarian): 25.1 µM
TGI (SK-OV-3 ovarian): > 100 µM
GI50 (SN12C renal): 34.5 µM
TGI (SN12C renal): > 100 µM
GI50 (SNB-19 CNS): 53.8 µM
TGI (SNB-19 CNS): > 100 µM
GI50 (SNB-75 CNS): 11.7 µM
TGI (SNB-75 CNS): 49 µM
GI50 (SR leukemia): 24.7 µM
TGI (SR leukemia): 65.2 µM
GI50 (SW-620 colon): 32.1 µM
TGI (SW-620 colon): > 100 µM
GI50 (T-47D breast): 23 µM
TGI (T-47D breast): > 100 µM
GI50 (TK-10 renal): 31.1 µM
TGI (TK-10 renal): > 100 µM
GI50 (U251 CNS): 34.7 µM
TGI (U251 CNS): > 100 µM
GI50 (UACC-257 melanoma): 23.4 µM
TGI (UACC-257 melanoma): 63.8 µM
GI50 (UACC-62 melanoma): 15.9 µM
TGI (UACC-62 melanoma): 35 µM
GI50 (UO-31 renal): 17.7 µM
TGI (UO-31 renal): 82.4 µM
